Reference: EPA's ToxRefDB 2

What was measured:
[1] = test system: rat; conditions: Subchronic oral toxicity in rodents, fischer, Feed, dose end: 14 week, group: systemic
[2] = test system: mouse; conditions: Carcinogenicity, b6c3f1, Oral, Feed, dose end: 2 year, group: systemic
[3] = test system: mouse; conditions: Subchronic oral toxicity in rodents, b6c3f1, Feed, dose end: 14 week, group: systemic, systemic / hematology / mean corpuscular (cell) volume (mcv) / mean corpuscular (cell) volume (mcv) + systemic / hematology / mean …
[4] = test system: rat; conditions: Carcinogenicity, fischer, Oral, Feed, dose end: 2 year, group: systemic
[5] = test system: rat; conditions: Multigenerational reproductive toxicity study, sprague dawley, Oral, Feed, dose end: 3 generation
[6] = test system: mouse; conditions: Carcinogenicity, cd1, Oral, Feed, dose end: 78 week, group: systemic
[7] = test system: rat; conditions: Combined chronic toxicity/carcinogenicity, sprague dawley, Oral, Feed, dose end: 24 month
[8] = test system: rat; conditions: Combined chronic toxicity/carcinogenicity, sprague dawley, Oral, Feed, dose end: 24 month, group: systemic
[9] = test system: rat; conditions: Multigenerational reproductive toxicity study, sprague dawley, Oral, Feed, dose end: 2 generation
[10] = test system: dog; conditions: Chronic toxicity; beagle; Oral; Gavage/Intubation; dose end: 12 month; group: systemic; systemic / clinical chemistry / alkaline phosphatase (alp/alk) / alkaline phosphatase (alp/alk) + systemic / clinical chemistry / urea …
[11] = systemic / clinical chemistry / alanine aminotransferase (alt/sgpt) / alanine aminotransferase (alt/sgpt) + systemic / clinical chemistry / …
[12] = systemic / clinical chemistry / bile acids / bile acids + systemic / in life observation / body weight / body weight + systemic / in life …
[13] = systemic / in life observation / body weight / body weight
[14] = systemic / in life observation / body weight / body weight + systemic / pathology microscopic / nose / pigmentation
[15] = systemic / in life observation / body weight / body weight + systemic / in life observation / food consumption / food consumption
[16] = group: offspring, systemic / in life observation / body weight / offspring (pup) weight
[17] = group: offspring, systemic / in life observation / body weight / offspring (pup) weight + developmental / offspring survival late / viability index / …
[18] = group: parental, systemic / in life observation / body weight / body weight + systemic / in life observation / body weight / body weight gain
[19] = group: reproductive, reproductive / offspring survival early / live fetuses / live fetuses
[20] = systemic / in life observation / body weight / body weight gain + systemic / pathology microscopic / ovary / cyst + systemic / in life …
[21] = group: cholinesterase, cholinesterase / cholinesterase / cholinesterase / brain cholinesterase (che) + cholinesterase / cholinesterase / cholinesterase / …
[22] = group: systemic, systemic / pathology microscopic / nerve / cholesterol cleft(s) + systemic / pathology microscopic / nerve / mineralization + systemic / …
[23] = group: cholinesterase, cholinesterase / cholinesterase / cholinesterase / erythrocyte cholinesterase (che)
[24] = group: offspring, systemic / in life observation / body weight / offspring (pup) weight + developmental / offspring survival late / lactation index / …
[25] = group: parental, systemic / in life observation / body weight / body weight + systemic / in life observation / body weight / body weight gain + systemic / in…
[26] = group: reproductive, reproductive / offspring survival early / litter size / litter size

`O=C/C=C/c1ccccc1` [(2E)-3-Phenylprop-2-enal] showed an LOAEL [1, 11] of over 3100 mg/kg/day, an NOAEL [1, 11] of at least 3100 mg/kg/day and an LEL [1, 12] of 275 mg/kg/day. For the same molecule, the NEL [1, 12] was under 275 mg/kg/day, the LOAEL [2, 13] was 270 mg/kg/day and the LEL [2, 14] was 270 mg/kg/day. It also gave an NEL [2, 14] of 125 mg/kg/day, an NOAEL [2, 14] of 125 mg/kg/day and an LEL [3] of 1320 mg/kg/day. The LOAEL [3] was over 5200 mg/kg/day, the NEL [3] was 650 mg/kg/day and the NOAEL [3] was at least 5200 mg/kg/day. For the same molecule, the LOAEL [4, 13] was 200 mg/kg/day, the LEL [4, 15] was 100 mg/kg/day and the NEL [4, 15] was 50 mg/kg/day. The NOAEL [4, 15] was 100 mg/kg/day.
`CCSC(=O)N(CC)C1CCCCC1` [Cycloate] showed an LEL [5, 16] of 24 mg/kg/day, an LOAEL [5, 16] of 24 mg/kg/day and an NEL [5, 17] of 8 mg/kg/day. It also gave an NOAEL [5, 17] of 8 mg/kg/day, an LEL [5, 18] of 24 mg/kg/day and an LOAEL [5, 18] of 24 mg/kg/day. The NEL [5, 18] was 8 mg/kg/day, the NOAEL [5, 18] was 8 mg/kg/day and the LEL [5, 19] was 72 mg/kg/day. The LOAEL [5, 19] was over 72 mg/kg/day, the NEL [5, 19] was 24 mg/kg/day and the NOAEL [5, 19] was at least 72 mg/kg/day. It also gave an LOAEL ([6]; systemic / in life observation / body weight / body weight gain + systemic / pathology microscopic / ovary / cyst) of 167 mg/kg/day, an LEL [6, 20] of 167 mg/kg/day and an NEL [6, 20] of 49 mg/kg/day. The NOAEL [6, 20] was 49 mg/kg/day, the LEL [7, 21] was 8 mg/kg/day and the LOAEL [7, 21] was 8 mg/kg/day. It also gave an NEL [7, 21] of under 8 mg/kg/day, an NOAEL [7, 21] of under 8 mg/kg/day and an LEL [7, 22] of 8 mg/kg/day. It also gave an LOAEL [7, 22] of 8 mg/kg/day, an NEL [7, 22] of under 8 mg/kg/day and an NOAEL [7, 22] of under 8 mg/kg/day. For the same molecule, the LEL ([8]; systemic / organ weight / heart / absolute) was 2.4 mg/kg/day, the NEL ([8]; systemic / organ weight / heart / absolute + systemic / pathology microscopic / skeletal muscle / atrophy + systemic / pathology microscopic…) was 0.4 mg/kg/day and the LOAEL ([8]; systemic / pathology microscopic / spinal cord / atrophy + systemic / pathology microscopic / spinal cord / degeneration) was 3.1 mg/kg/day. The NOAEL ([8]; systemic / pathology microscopic / spinal cord / atrophy + systemic / pathology microscopic / spinal cord / degeneration + systemic / in …) was 0.5 mg/kg/day, the LEL [9, 23] was 50 mg/kg/day and the LOAEL [9, 23] was over 50 mg/kg/day. For the same molecule, the NEL [9, 23] was 20 mg/kg/day, the NOAEL [9, 23] was at least 50 mg/kg/day and the LEL [9, 16] was 20 mg/kg/day. For the same molecule, the LOAEL [9, 16] was 20 mg/kg/day, the NEL [9, 24] was 2.5 mg/kg/day and the NOAEL [9, 24] was 2.5 mg/kg/day. For the same molecule, the LEL [9, 25] was 20 mg/kg/day, the LOAEL [9, 25] was 20 mg/kg/day and the NEL [9, 25] was 2.5 mg/kg/day. The NOAEL [9, 25] was 2.5 mg/kg/day, the LEL [9, 26] was 50 mg/kg/day and the LOAEL [9, 26] was 50 mg/kg/day. It also gave an NEL [9, 26] of 20 mg/kg/day, an NOAEL [9, 26] of 20 mg/kg/day and an LEL [10] of 50 mg/kg/day. It also gave an LOAEL [10] of 50 mg/kg/day, an NEL [10] of 0.5 mg/kg/day and an NOAEL [10] of 0.5 mg/kg/day.
